The values that follow come from US6894068B2, “Substituted benzimidazoles as non-nucleoside inhibitors of reverse transcriptase” (The United States of America as represented by the …, priority 1997, dated 2005).

For data set [1], the system named is HIV-1 isolate K103N. Kind of data set: Cytopathic cell killing assay, MT-4 cells, isolate K103N. The note with it: cytopathic cell killing assay. The format is cell-based. From the text: (§1) The various HIV isolates tested in the Figures are those corresponding to wild-type virus (NL4-3) and the other strains listed by their RT mutations. The three 4×AZT isolates included in the Figures represent AZT drug-resistant variants. For example, the 4×AZT/L100I isolate has five mutations: four mutations confer increased resistance to AZT, and the other mutation is located within the NNRTI binding pocket. TZB and nevir. (nevirapine) are two well-known NNRTIs, included in this experiment for comparison purposes.
(§2) In this Example, the antiviral and cellular toxicity of NNRTIs was investigated, using the cytopathic cell killing assay described by Yang (Yang et al., “Characteristics of a Group of Non-nucleoside Reverse Transcriptase Inhibitors with Structural Diversity and Potent Anti-Human Immunodeficiency Virus Activity,” Leukemia 9:S75-S85 [1995]). Briefly, in this method cells (e.g., the CEM-SS cell line, available from the NIAID AIDS Research and Reference Program [ARRRP]) were seeded at a density of 5×10^3 cells/well, into the wells of a 96-well microtiter plate. The cells were then infected with HIV virus (either mutant or WT), at a multiplicity of infection (MOI) previously determined to provide complete cell killing by 6 days of culture post-infection (e.g., MOI of 0.01-0.05). Each of the HIV isolates was pre-titered to induce equivalent levels of infection based on cell killing or virus production, prior to their use in these assays. A range of test compound concentrations was added to the wells in triplicate (e.g., serial half-log dilutions) to evaluate inhibition of HIV infection. Controls for each assay included drug controls (drug colorimetric control wells), drug cytotoxicity control wells (cells with drug), virus control wells (cells with virus), and cell viability controls (cells only). Positive control drugs (e.g. AZT and ddC) were also run in parallel.
(§3) After six days of incubation at 37° C., cell viability was determined spectrophotometrically at 450 nm for each well, using the metabolic reduction of XTT to a soluble colored formazan. (See, Gartner and Popovic, “Virus Isolation and Production, in Aldovini and Walker (eds.), Techniques in HIV Research, Stockton Press, NY, pp. […] [1991]; and Nara and Fischinger, “Quantitative Infectivity Assay for HIV-1 and HIV-2, ” Nature 332:469-470 [1988]).
(§4) The in vitro therapeutic index (TI50) was defined as the fold-difference between the EC50 and IC50. The results for the various compounds are included in FIGS. 8 and 19.
In general terms: Damage to the host cells serves as the signal in cytopathic effect assays.

In data set [2] the test system is HIV-1 isolate K101E. Kind of data set: Cytopathic cell killing assay, MT-4 cells, isolate K101E. The format is cell-based. To be noted: Human immunodeficiency virus 1, MT4, read-out: EC50, isolate K101E, Table 10; values in μM.
Source text: as §1, §2, §3, §4

The subject of data set [3] is HIV-1 isolate 4xAZT (AZT drug-resistant variant). Kind of data set: Cytopathic cell killing assay, MT-4 cells, isolate 4xAZT. The note with it: Human immunodeficiency virus 1, MT4, read-out: EC50, isolate 4XAZT. The data set is classed as cell-based.
Source text: as §1
(§5) In this Example, the antiviral and cellular toxicity of NNRTIs was investigated, using the cytopathic cell killing assay described by Yang (Yang et al., “Characteristics of a Group of Non-nucleoside Reverse Transcriptase Inhibitors with Structural Diversity and Potent Anti-Human Immunodeficiency Virus Activity,” Leukemia 9:S75-S85 [1995]). Briefly, in this method cells (e.g., the CEM-SS cell line, available from the NIAID AIDS Research and Reference Program [ARRRP]) were seeded at a density of 5×10^3 cells/well, into the wells of a 96-well microtiter plate. The cells were then infected with HIV virus (either mutant or WT), at a multiplicity of infection (MOI) previously determined to provide complete cell killing by 6 days of culture post-infection (e.g., MOI of 0.01-0.05). Each of the HIV isolates was pre-titered to induce equivalent levels of infection based on cell killing or virus production, prior to their use in these assays. A range of test compound concentrations was added to the wells in triplicate (e.g., serial half-log dilutions) to evaluate inhibition of HIV infection. […]
(§6) After six days of incubation at 37° C., cell viability was determined spectrophotometrically at 450 nm for each well, using the metabolic reduction of XTT to a soluble colored formazan. (See, Gartner and Popovic, “Virus Isolation and Production, in Aldovini and Walker (eds.), Techniques in HIV Research, Stockton Press, NY, pp. […] [1991]; and Nara and Fischinger, “Quantitative Infectivity Assay for HIV-1 and HIV-2, ” Nature 332:469-470 [1988]). […]

Data set [4] concerns HIV-1 isolate L100I. Kind of data set: Cytopathic cell killing assay, MT-4 cells, isolate L100I. The data set is classed as cell-based. The note with it: Human immunodeficiency virus 1, MT4, read-out: EC50, isolate L100I, Table 10; values in μM.
Source text: as §1, §2, §3, §4

Data set [5] relates to HIV-1 isolate M184I. The data set is described as follows: Cytopathic cell killing assay, isolate M184I. The data set is classed as cell-based. The note with it: Human immunodeficiency virus 1, read-out: EC50, isolate M184I.
Source text: as §1, §5, §6

The subject of data set [6] is WT and HIV-1 variants containing amino acid substitutions in RT. The data set is classed as cell-based. The note with it: cytopathic cell killing assay, NNRTI-resistant HIV isolates.
Source text: In these Tables, antiviral data are reported as the quantity of drug in μM required to reduce cell killing or virus production by 50% (EC50). The various HIV isolates tested in the Figures are those corresponding to wild-type virus (NL4-3) and the other strains listed by their RT mutations. The three 4×AZT isolates included in the Figures represent AZT drug-resistant variants.
(§7) Briefly, in this method cells (e.g., the CEM-SS cell line, available from the NIAID AIDS Research and Reference Program [ARRRP]) were seeded at a density of 5×10^3 cells/well, into the wells of a 96-well microtiter plate. The cells were then infected with HIV virus (either mutant or WT), at a multiplicity of infection (MOI) previously determined to provide complete cell killing by 6 days of culture post-infection (e.g., MOI of 0.01-0.05). Each of the HIV isolates was pre-titered to induce equivalent levels of infection based on cell killing or virus production, prior to their use in these assays. A range of test compound concentrations was added to the wells in triplicate (e.g., serial half-log dilutions) to evaluate inhibition of HIV infection. Controls for each assay included drug controls (drug colorimetric control wells), drug cytotoxicity control wells (cells with drug), virus control wells (cells with virus), and cell viability controls (cells only). Positive control drugs (e.g. AZT and ddC) were also run in parallel.
as §3
Antiviral and toxicity data were reported as the quantity of drug required to inhibit 50% of virus-induced cell killing or virus production (EC50), and the quantity of drug required to […] (IC50). The in vitro therapeutic index (TI50) was defined as the fold-difference between the EC50 and IC50.

Data set [7] deals with HIV-1 isolate Y188H. Kind of data set: Cytopathic cell killing assay, isolate Y188H. The data set is classed as cell-based. The note with it: Human immunodeficiency virus 1, read-out: EC50, isolate Y188H.
Source text: as §1, §2, §3, §4

Data set [8] deals with HIV-1 isolate V108I. Kind of data set: Cytopathic cell killing assay, MT-4 cells, isolate V108I. The format is cell-based. The note with it: Human immunodeficiency virus 1, MT4, read-out: EC50, isolate V108I, Table 10; values in μM.
Source text: as §1, §2, §3, §4

Data set [9] has as its system HIV-1 isolate Y181C. The data set is described as follows: Cytopathic cell killing assay, MT-4 cells, isolate Y181C. The format is cell-based.
Source text: as §1, §2, §3, §4

For data set [10], the system named is HIV-1 isolate A98G. The data set is described as follows: Cytopathic cell killing assay, MT-4 cells, isolate A98G. The format is cell-based. To be noted: Human immunodeficiency virus 1, MT4, read-out: EC50, isolate A98G, Table 8; MT-4 cells.
Source text: as §1, §2, §3, §4

For data set [11], the system named is HIV-1 WT virus (NL4-3). Kind of data set: microbe, parasite or virus in culture. The format is cell-based. The note with it: Human immunodeficiency virus 1, NL43, CEM-SS, read-out: EC50. Put shortly: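 CEM-SS cells (5×10^3/well) infected with HIV-1 NL4-3 at MOI giving complete killing by day 6 (e.g., 0.01-0.05), with half-log compound dilutions in triplicate. After six days at 37° C., viability measured by XTT reduction at 450 nm; CIC50 is 50% inhibitory concentration of cytopathic killing.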

In data set [12] the test system is HIV-1 isolate 4xAZT/L100I. Kind of data set: Cytopathic cell killing assay, MT-4 cells, isolate 4xAZT/L100I. The format is cell-based. To be noted: read-out: EC50, isolate 4XAZT/L1001; Table 9; MT-4 cells. As for the experimental part:
The various HIV isolates tested in the Figures are those corresponding to wild-type virus (NL4-3) and the other strains listed by their RT mutations. The three 4×AZT isolates included in the Figures represent AZT drug-resistant variants.
as §7, §3
The in vitro therapeutic index (TI50) was defined as the fold-difference between the EC50 and IC50.

The test system of data set [13] is HIV-1 NL4-3 (WT). Kind of data set: Cytopathic cell killing assay, MT-4 cells, isolate NL4-3 (WT). The format is cell-based. The note with it: Human immunodeficiency virus 1, NL43, MT4, read-out: EC50, isolate NL4-3, Table 9; MT-4 cells.
Source text: as §1, §2, §3, §4

In data set [14] the test system is HIV-1 isolate Y188C. Kind of data set: Cytopathic cell killing assay, MT-4 cells, isolate Y188C. The format is cell-based. The note with it: Human immunodeficiency virus 1, MT4, read-out: EC50, isolate Y188C, Table 9; MT-4 cells.
Source text: as §1, §2, §3, §4

Data set [15] deals with HIV-1 isolate L74V. Kind of data set: Cytopathic cell killing assay, MT-4 cells, isolate L74V. To be noted: Human immunodeficiency virus 1, MT4, read-out: EC50, isolate L74V, Table 9; MT-4 cells. The data set is classed as cell-based.
Source text: as §1, §2, §3, §4

“Also recorded” adds a separate entry of the source. Read-outs that look alike come from different tables or passages of the source.

Usually melting point stands for the temperature of the solid-liquid transition.

In turn, `COc1cccc2c1nc(-c1c(F)cccc1F)n2Cc1c(F)cccc1F` [Compound 5006, 1-(2,6-difluorobenzyl)-2-(2,6-difluorophenyl)-4-methoxylbenzimidazole] returned a melting point of 154 to 155 °C. Further, the “activity against K103N, result in words” value in [1] was “failed to show any activity”. Moreover, the EC50 in data set [2] is 2.82 µM. Also, the EC50 in data set [3] is 600 nM. The EC50 in data set [4] was found to be 0.16 µM. Besides, the EC50 in data set [5] stood at 160 nM. In addition, the “cross-resistance profile, result in words” value in [6] is reported as “inhibit HIV-1 better than TZB; also recorded: equal or better against the various variants than nevirapine”. The “cross-resistance profile, result in words” value in data set [6] (listed as 44) is “retained the best activity against the different RT variants; also recorded: retains activity comparable with nevirapine”. In data set [7], the EC50 is 260 nM. In addition, the EC50 in data set [8] stood at 2.82 µM. For the same molecule, the EC50 in [9] (Human immunodeficiency virus 1, MT4, read-out: EC50, isolate Y181C, Table 10, values in μM) came out at 0.26 µM. Also, in data set [9] (cytopathic cell killing assay), the “activity against Y181C, result in words” value is on record as “maintaining activity”. For the same molecule, in [10], the EC50 was 300 nM. The EC50 in [11] (Table 7, drug concentration required to reduce cell killing or virus production by 50%, WT) was 4.6 nM. In data set [11] (Table 11, CEMSS/NL4-3, NRVC = no reduction in viral CPE), the EC50 worked out at 60 nM. For the same molecule, the EC50 in data set [11] (text b130, cytopathic cell killing assay, WT) was 4.6 nM.
Take `Fc1cccc(F)c1C1SCc2nc3ccccc3n21` (stereo not drawn) [TZB, 1-(2,6-difluorophenyl)-1H,3H-thiazolo[3,4-a]benzimidazole, reference compound]: the “activity against K103N, result in words” value in [1] is recorded as “ineffective”. Also, the EC50 in data set [12] was 1100 nM; in data set [13], 1000 nM; in [14], above 20000 nM; in data set [15] it was 800 nM.
